Test results from ChEMBL document CHEMBL1145610, “N-Acetylhexosaminidase inhibitory properties of C-1 homologated GlcNAc- and GalNAc-thiazolines” (Bioorg Med Chem Lett, 2008).

Target: T1, B-N-acetylhexosaminidase (Streptomyces plicatus, UniProt O85361)
T1 sequence (O85361 whole entry): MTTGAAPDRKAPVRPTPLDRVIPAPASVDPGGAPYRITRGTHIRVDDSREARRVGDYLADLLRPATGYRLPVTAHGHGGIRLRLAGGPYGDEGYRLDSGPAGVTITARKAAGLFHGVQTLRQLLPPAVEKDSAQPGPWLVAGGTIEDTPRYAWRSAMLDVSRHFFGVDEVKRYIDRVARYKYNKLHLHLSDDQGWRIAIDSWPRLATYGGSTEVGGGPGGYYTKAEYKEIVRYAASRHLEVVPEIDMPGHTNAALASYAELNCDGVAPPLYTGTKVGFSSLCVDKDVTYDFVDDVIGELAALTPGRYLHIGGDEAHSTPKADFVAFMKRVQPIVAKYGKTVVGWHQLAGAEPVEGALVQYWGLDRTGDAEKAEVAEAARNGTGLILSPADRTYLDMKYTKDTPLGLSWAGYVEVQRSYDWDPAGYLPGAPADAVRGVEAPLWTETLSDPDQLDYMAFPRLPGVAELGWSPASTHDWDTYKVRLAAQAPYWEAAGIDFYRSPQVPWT
Assay: Inhibition of Streptomyces plicatus N-acetyl-hexosaminidase

SMILES | Ki [µM]
CC1=N[C@@H]2[C@@H](O)[C@H](O)[C@@H](CO)O[C@]2(C)S1 | 200
CC1=N[C@@H]2[C@@H](O)[C@@H](O)[C@@H](CO)O[C@@H]2S1 | 100
CC1=N[C@@H]2[C@@H](O)[C@H](O)[C@@H](CO)O[C@@H]2S1 | 20
CC1=N[C@@H]2[C@@H](O)[C@@H](O)[C@@H](CO)O[C@]2(CNC(=O)OC(C)(C)C)S1 | > 2000
Cc1nc2c(s1)O[C@H](CO)[C@H](O)[C@@H]2O | 1600
CC(=O)NC1NC[C@H](CO)[C@H](O)[C@@H]1O (single isomer, unassigned) | 21
CC1=N[C@@H]2[C@@H](O)[C@@H](O)[C@@H](CO)O[C@]2(CN)S1 | > 2000
